Read-outs that look alike come from different tables or passages of the source.

In this assay the test system is ATF4 luciferase reporter. Briefly: ATF4 luciferase reporter assay (Cell-luc) in HEK293T cells. It is filed as cell-based, human. From the text:
FIGS. 1A-1C. […]
To identify inhibitors of PERK signaling, we engineered a reporter that allows monitoring of PERK activation in living cells. To this end, we constructed a retroviral vector containing the open-reading frame of firefly luciferase fused to the 5′UTR of ATF4 mRNA (FIG. 1A), which contains two short open-reading frames (uORFs) that control ATF4 translation in a stress-dependent manner. After infection, we established a HEK293T cell line harboring the stably integrated reporter. […] This format was used to screen 106,281 compounds covering a wide chemical space. We identified 460 hits (0.43%) (FIG. 1C), which were further validated in an 8-point dose-response assay using the same reporter. We further triaged the compounds by discarding inhibitors that also affected the IRE1 branch of the UPR using an XBP1-luciferase splicing reporter. […] We next used an orthogonal secondary screen that employed a different reporter (bi-cistronic ATF4-dGFPIRES-mCherry) stably integrated into a different cell line (U20S cells). The read-out of this latter screen was microscopy-based, which allowed us to simultaneously assess acute toxicity by cell counting, further reducing the number of viable hits to 77. As a tertiary screen, we tested compounds for their ability to inhibit ER stress-elicited induction of endogenous ATF4 by Western blot analysis. Twenty-eight compounds passed this test and were analyzed further.
ATF4 reporters were constructed by fusing the human full-length ATF4 5′-UTR (NCBI Accession BC022088.2) in front of the firefly luciferase (FLuc) or a destabilized eGFP (dEGFP) coding sequences lacking the initiator methionine.
The ATF4-FLuc reporter was generated by cloning a PCR-product containing the ATF4 full-length 5′-UTR (from +1 position a the transcription start site down to one nucleotide after the terminator codon of the second uORF) flanked by KpnI/XhoI and BglII sites at the 5′ and 3′ ends, respectively, into the KpnI-BglII sites of pCAX-F-XBP1-Luc. The resulting construct, pCAX-ATF4-FLuc, was then digested with BamHI, blunted with T4 DNA polymerase, and then digested with XhoI. The resulting fragment was then subcloned into the retroviral expression vector pLPCX (Clontech) after digesting it with HindIII, blunting with T4 DNA polymerase and then digesting with XhoI to generate pLPCX-ATF4-FLuc (DAA-312). DAA-312 was used to produce recombinant retroviruses using standard methods and the resulting viral supernatant was used to transduce HEK293T cells, which were then subsequently selected with puromycin to generate a stable cell line employed in the primary screen.
HEK293T cells carrying the ATF4 luciferase reporter were plated on poly-lysine coated 384 well plates (Greiner) at 30,000 cells per well. […] Luminescence was measured using One Glo (Promega) as specified by the manufacturer. […] Thus, these were considered unique to the PERK branch and were cherry-picked for further analysis.
(A reporter such as luciferase makes a cellular process visible.)

The mark [1] stands for this setting: Homo sapiens, HEK-293T, ATF4 luciferase reporter, HEK293T cells, read-out: IC50 (nM) Cell-luc.
[2] abbreviates: ATF4 luciferase reporter, HEK293T cells, read-out: IC50 (nM) Cell-luc.
Setting [3] is: cultured HEK293T cells, 2 μg/ml tunicamycin, 7 h, synthesized isomers, read-out: IC50, inhibition of the ATF4-luciferase reporter.

For orientation: IC50 means the concentration that gives 50% inhibition. As for `O=C(COc1ccc(Cl)cc1)N[C@H]1CC[C@H](NC(=O)COc2ccc(Cl)cc2)CC1` [750213.2], the IC50 under setting [1] stood at 3 nM. As for `C#CCN(C(=O)COc1ccc(Cl)cc1)[C@H]1CC[C@H](NC(=O)COc2ccc(Cl)cc2)CC1` [755854.1], the IC50 under setting [2] turned out to be 2700 nM. On the same count and under the same terms, in the case of `C#CCN(C(=O)COc1ccc(Cl)cc1)[C@H]1CC[C@H](NC(=O)COc2ccc(Cl)cc2)CC1` [755854.2] it was 440 nM; in that of `C#CCN(C(=O)COc1ccc(Cl)cc1)[C@H]1CC[C@H](NC(=O)COc2ccc(Cl)cc2)CC1` [755854.3], 100 nM. Still for that read-out and setting: the result for `C#CCN(C(=O)COc1ccc(Cl)cc1)[C@H]1CC[C@H](NC(=O)COc2ccc(Cl)cc2)CC1` [755854.4] reads 64 nM; that for `N=C(COc1ccc(Cl)cc1)N[C@H]1CC[C@H](NC(=O)COc2ccc(Cl)cc2)CC1` [757264-L3], 60 nM. Regarding `N=C(COc1ccc(Cl)cc1)N[C@H]1CC[C@H](NC(=O)COc2ccc(Cl)cc2)CC1` [757264.1], the concentration for half-maximal inhibition (IC50) under setting [2] amounted to 100 nM. Turning to `N=C(COc1ccc(Cl)cc1)N[C@H]1CC[C@H](NC(=O)COc2ccc(Cl)cc2)CC1` [757264.2], the concentration for half-maximal inhibition (IC50) under setting [2] worked out at 34 nM. On to `O=C(COc1ccc(Cl)cc1)N[C@H]1CC[C@H](NC(=O)COc2ccc(Cl)cc2)CC1` [Trans-ISRIB, 2-(4-Chlorophenoxy)-N-[(1r, 4r)-4-[2-(4-chlorophenoxy)acetamido]cyclohexyl]acetamide], for which, under “ATF4-luciferase reporter”, the “potency of trans-ISRIB relative to cis-ISRIB” value turned out to be 100 fold. For the same compound, the IC50 under setting [3] amounted to 5 nM. For `O=C(COc1ccc(Cl)cc1)N[C@H]1CC[C@@H](NC(=O)COc2ccc(Cl)cc2)CC1` [cis-ISRIB, 2-(4-chlorophenoxy)-N-[(1s, 4s)-4-[2-(4-chlorophenoxy)acetamido]cyclohexyl]acetamide], the IC50 under setting [3] came out at 600 nM. As for `O=C(COc1ccc(Cl)cc1)Nc1ccc(NC(=O)COc2ccc(Cl)cc2)cc1` [compound 102509], under setting [1], the half-maximal inhibitory concentration (IC50) amounted to 53 nM. Still for that read-out and setting: in the case of `COc1ccc(OCC(=O)N[C@H]2CC[C@H](NC(=O)COc3ccc(Cl)cc3)CC2)cc1` [compound 751591] it was 250 nM; in that of `O=C(COc1ccc(Cl)cc1)N[C@H]1CC[C@H](NC(=O)COc2ccc(OCc3ccccc3)cc2)CC1` [compound 751592], more than 10000 nM; in that of `O=C(COc1ccccc1)N[C@H]1CC[C@H](NC(=O)COc2ccc(Cl)cc2)CC1` [compound 751593], 384 nM. The same measure, in the same setting: in the case of `O=C(COc1ccc(Cl)cc1)N[C@H]1CC[C@H](NC(=O)COc2ccc(Cl)cc2Cl)CC1` [compound 751594] it was 69 nM. Turning to `Cc1ccc(CC(=O)N[C@H]2CC[C@H](NC(=O)COc3ccc(Cl)cc3)CC2)cc1` [compound 751595], the IC50 under setting [1] was more than 10000 nM. Same read-out and setting: in the case of `O=C(COc1ccc(Cl)cc1)N[C@H]1CC[C@H](NC(=O)c2ccc(Cl)cc2)CC1` [compound 751596] it was more than 10000 nM; in that of `O=C(COc1ccc(O)cc1)N[C@H]1CC[C@H](NC(=O)COc2ccc(Cl)cc2)CC1` [compound 751597], more than 10000 nM; in that of `COc1ccc(OCC(=O)N[C@H]2CC[C@H](NC(=O)COc3ccc(OC)cc3)CC2)cc1` [compound 754123], more than 10000 nM.

Regarding `O=C(COc1ccc(Cl)cc1)N[C@H]1CC[C@@H](NC(=O)COc2ccc(Cl)cc2Cl)CC1` [compound 754124], the IC50 under setting [1] was more than 10000 nM.

On to `O=C(CCc1ccc(Cl)cc1)N[C@H]1CC[C@H](NC(=O)CCc2ccc(Cl)cc2)CC1` [compound 754125], for which the IC50 under setting [1] was more than 10000 nM.

Turning to `Cc1ccc(OCC(=O)N[C@H]2CC[C@H](NC(=O)COc3ccc(C)cc3)CC2)cc1` [compound 754126], the 50% inhibitory concentration (IC50) under setting [1] worked out at 327 nM. Same read-out and setting: in the case of `O=C(COc1ccc(C(F)(F)F)cc1)N[C@H]1CC[C@H](NC(=O)COc2ccc(C(F)(F)F)cc2)CC1` [compound 754127] it was 13 nM; in that of `Cc1ccc(OCC(=O)N[C@H]2CC[C@H](NC(=O)COc3ccc(Cl)cc3)CC2)cc1` [compound 754128], 95 nM; in that of `O=C(COc1ccc(Cl)cc1)N[C@H]1C[C@H](NC(=O)COc2ccc(Cl)cc2)C1` [compound 755855], 142 nM. The same measure, in the same setting: the result for `O=C(COc1ccc(Cl)cc1)N[C@H]1C[C@@H](NC(=O)COc2ccc(Cl)cc2)C1` [compound 755856] reads 1000 nM.

For the compound `N#Cc1ccc(OCC(=O)N[C@H]2CC[C@H](NC(=O)COc3ccc(C#N)cc3)CC2)cc1` [compound 757095], the IC50 under setting [1] is more than 10000 nM. In the case of `C[S+]([O-])c1ccc(OCC(=O)N[C@H]2CC[C@H](NC(=O)COc3ccc([S+](C)[O-])cc3)CC2)cc1` (stereo partly drawn) [compound 757096], the IC50 under setting [1] was more than 10000 nM. As to `O=C(COc1ccc([N+](=O)[O-])cc1)N[C@H]1CC[C@H](NC(=O)COc2ccc([N+](=O)[O-])cc2)CC1` [compound 757130], the 50% inhibitory concentration (IC50) under setting [2] is more than 10000 nM. In the case of `O=C(COc1ccc(F)cc1)N[C@H]1CC[C@H](NC(=O)COc2ccc(F)cc2)CC1` [compound 757131], the IC50 under setting [1] is 270 nM. The same measure, in the same setting: in the case of `C#C[C@]1(NC(=O)COc2ccc(Cl)cc2)CC[C@@H](NC(=O)COc2ccc(Cl)cc2)CC1` [compound 757132] it was 3000 nM.

For the compound `C#C[C@]1(NC(=O)COc2ccc(Cl)cc2)CC[C@H](NC(=O)COc2ccc(Cl)cc2)CC1` [compound 757149], the IC50 under setting [1] was determined as 37 nM. On to `O=C(COc1ccc(F)cc1)N[C@H]1CC[C@H](NC(=O)COc2ccc(Cl)cc2)CC1` [compound 757257], for which the IC50 under setting [1] worked out at 48 nM. On to `O=C(COc1ccc(Cl)cc1)N[C@H]1CC[C@H](NC(=O)COc2ccc(C(F)(F)F)cc2)CC1` [compound 757258], for which the IC50 under setting [1] turned out to be 10 nM. Still for that read-out and setting: the result for `N#Cc1ccc(OCC(=O)N[C@H]2CC[C@H](NC(=O)COc3ccc(Cl)cc3)CC2)cc1` [compound 757259] reads 263 nM; that for `C[S+]([O-])c1ccc(OCC(=O)N[C@H]2CC[C@H](NC(=O)COc3ccc(Cl)cc3)CC2)cc1` (stereo partly drawn) [compound 757260], more than 10000 nM. The same measure, in the same setting: the result for `O=C(COc1ccc(Cl)cc1)N[C@H]1CC[C@H](NC(=O)CSc2ccc(Cl)cc2)CC1` [compound 757261] reads more than 10000 nM. The same measure, in the same setting: in the case of `O=C(COc1ccc(Cl)cc1)N[C@H]1CC[C@H](NC(=O)C[S+]([O-])c2ccc(Cl)cc2)CC1` (stereo partly drawn) [compound 757262] it was more than 10000 nM. Regarding `O=C(COc1ccc(Cl)cc1)N[C@H]1CC[C@H](NC(=O)CS(=O)(=O)c2ccc(Cl)cc2)CC1` [compound 757263], under setting [1], the half-maximal inhibitory concentration (IC50) is more than 10000 nM. The same measure, in the same setting: the result for `O=C(COc1ccc(Cl)cc1)N[C@H]1CC[C@H](NC(=O)CSc2ccccc2)CC1` [compound 811769] reads more than 10000 nM. The same measure, in the same setting: in the case of `O=C(COc1ccc(Cl)cc1)N[C@H]1CC[C@H](NC(=O)CSc2ccc(F)cc2)CC1` [compound 811770] it was 900 nM; in that of `O=C(COc1ccc(Cl)cc1)N[C@H]1C[C@H](NC(=O)CSc2ccc(Cl)cc2)C1` [compound 811771], more than 10000 nM.

Turning to `O=C(COc1ccc(Cl)cc1)N[C@H]1C[C@H](NC(=O)CSc2ccc(F)cc2)C1` [compound 811772], the 50% inhibitory concentration (IC50) under setting [1] is more than 10000 nM. Same read-out and setting: in the case of `O=C(COc1ccc(Cl)cc1)N[C@H]1C[C@H](NC(=O)CSc2ccccc2)C1` [compound 811773] it was more than 10000 nM; in that of `O=C(CCCC[C@H]1SCC2NC(=O)NC21)NCCOCCOCCOCCn1cc([C@]2(NC(=O)COc3ccc(Cl)cc3)CC[C@H](NC(=O)COc3ccc(Cl)cc3)CC2)nn1` (stereo partly drawn) [compound 835087], 2700 nM.

For the compound `O=C(CNc1ccc(Cl)cc1)N[C@H]1CC[C@H](NC(=O)COc2ccc(Cl)cc2)CC1` [compound 835089], the IC50 under setting [1] turned out to be 700 nM. Still for that read-out and setting: in the case of `O=C(COc1ccc(Cl)cc1)N[C@H]1CC[C@H](NCCOc2ccc(Cl)cc2)CC1` [compound 835195] it was 170 nM; in that of `O=C(COc1ccc(Cl)cc1)N[C@H]1CC[C@H](N(CCOc2ccc(Cl)cc2)CCOc2ccc(Cl)cc2)CC1` [compound 835196], 1400 nM. On the same count and under the same terms, the result for `N=C(COc1ccc(Cl)cc1)N[C@H]1CC[C@H](N(Cc2cn(CCOCCOCCOCCNC(=O)CCCC[C@@H]3SCC4NC(=O)NC43)nn2)C(=O)COc2ccc(Cl)cc2)CC1` (stereo partly drawn) [compound 835197] reads more than 10000 nM; that for `CC(=O)c1ccc(OCC(=O)N[C@H]2CC[C@H](NC(=O)COc3ccc(Cl)cc3)CC2)cc1` [compound 843983], more than 10000 nM.

The values above are taken from patent US9708247B2, “Modulators of the eIF2alpha pathway” (The Regents of the University of California, priority 2013, dated 2017).
